Reference: patent JPH07173127A, “ヒドロキサム酸誘導体およびそれを有効成分とするエラスターゼ阻害剤” (Kuraray Co Ltd, priority 1993, dated 1995)

Molecular target: T1, human leukocyte-derived elastase [ヒト白血球由来エラスターゼ] (Homo sapiens, UniProt P08246)
T1 construct: ヒト白血球由来エラスターゼはシグマ社; purchased Sigma (USA); host or cells: human leukocytes (natural source, as the printed name says)
T1 sequence (P08246 30-247 limits assumed): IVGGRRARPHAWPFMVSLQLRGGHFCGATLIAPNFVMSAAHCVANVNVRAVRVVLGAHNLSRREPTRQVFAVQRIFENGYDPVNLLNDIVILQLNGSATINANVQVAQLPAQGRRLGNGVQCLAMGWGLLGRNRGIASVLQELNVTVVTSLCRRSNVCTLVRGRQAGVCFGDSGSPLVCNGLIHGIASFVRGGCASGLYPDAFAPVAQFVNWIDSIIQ
Assay: エラスターゼ阻害試験 (elastase inhibition test, Test Example 1; fluorogenic substrate)
Type: biochemical
Conditions: 50% inhibitory concentration of elastase activity; substrate methoxysuccinyl-Ala-Ala-Pro-Val-4-methyl-coumaryl-7-amide; 0.2M Tris-HCl buffer containing 1M NaCl, pH 8.5; 35℃, 5 min incubation; fluorescence 370/460 nm

`CCOC(=O)C(CCC(C)C)(CCC(C)C)C(=O)NOCc1ccccc1` [実施例1, 2−イソペンチル−5−メチル−2−エトキシカルボニルヘキサノヒドロキサム酸ベンジルエステル] gave an IC50 of 3 µM.

`CCOC(=O)C(CCC(C)C)(CCC(C)C)C(=O)NO` [実施例2, 2−イソペンチル−5−メチル−2−エトキシカルボニルヘキサノヒドロキサム酸] gave an IC50 of 1 µM.

`CC(C)CCC(CCC(C)C)C(=O)NO` [実施例4, 2−イソペンチル−5−メチルヘキサノヒドロキサム酸] was tested, and the IC50 was 1 µM.
